Read-outs that look alike come from different tables or passages of the source.
How the values were obtained:
T1R1/T1R3 receptor [1] = biological target: T1, T1R1/T1R3 receptor (Felis catus, UniProt E3UMS2); assay: Activation of T1R1/T1R3 receptor by transmembrane compounds and nucleotide derivatives, conducted as in Examples 1, 2 and 5 (Example 7); type: cell-based, cat; conditions: for Activity: modulation of T1R1/T1R3
Description: (§1) Methods: HEK293 cells that stably express T1R3 and inducibly express T1R1 were exposed to nucleotide derivatives alone to activate the umami receptor. Activation of the T1R1/T1R3 receptor was detected by a change in intracellular calcium levels using a calcium sensitive fluorescent dye. Cells that express T1R3 but not T1R1 were used as a control. A FLIPR® Tetra or a FlexStation® 3 was used for data capture.
as §1, with “alone or in combination with one or more amino acids and/or one or more nucleotides” for “alone”, “dye and/or a luminescent reporter system.” for “dye.”
as §1, with “transmembrane compounds” for “nucleotide derivatives”, “alone or in combination with one or more amino acids and/or one or more nucleotides” for “alone”
(§2) In each experiment, serial dilutions of up to 10 mM of the transmembrane compound were added to the T1R1/T1R3-expressing cells.

cat T1R1/T1R3 receptor = cat T1R1/T1R3 receptor (Felis catus, UniProt E3UMS2); assay: cell-based; type: cell-based; conditions: for Max. resp. % of IMP: hek293 cells
Description: as §1, with “alone or in combination with one or more amino acids and/or one or more nucleotides” for “alone”, “dye and/or a luminescent reporter system.” for “dye.”

T1R1/T1R3 receptor [2] = biological target: T1, T1R1/T1R3 receptor; assay: PAM screening of transmembrane compounds with GMP and Ala on T1R1/T1R3 in HEK293 cells (Example 8); type: cell-based, cat; conditions: in the presence of GMP and Alanine
Description: PAM Screening Method: HEK293 cells that stably express T1R3 and inducibly express T1R1 were exposed to transmembrane compound alone or in combination with Ala and GMP to activate the umami receptor. Activation of the T1R1/T1R3 receptor was detected by a change in intracellular calcium levels using a calcium sensitive fluorescent dye and/or a luminescent reporter system. […] A FLIPR® Tetra or a FlexStation® 3 was used for data capture.
Dose response curves were generated for each transmembrane compound at concentrations of 0 (buffer only), 0.01, 0.1 and 1 mM, wherein each of the three concentrations of transmembrane compound was tested in combination with 0.03 mM GMP+100 mM Ala (T1); 0.6 mM GMP+10 mM Ala (T2); 0.1 mM GMP+60 mM Ala (T3) and 0.3 mM GMP+60 mM Ala (T4). The T4 mixture was also tested in a 2-fold dilution series (the T4(X) Concentration). In these experiments, the first test concentration was 2× (2 times) the T4 concentration. The subsequent test concentrations were 2-fold dilutions from that (1×, 0.5× etc.). This dilution series was tested with or without the addition of the test compound at a constant 0.3 mM concentration.
Activation of the umami receptor was also determined in the presence of 1 mM GMP+100 mM Ala to generate a “maximum” umami receptor activation level.

T1R1/T1R3 receptor [3] = biological target: T1, T1R1/T1R3 receptor; assay: Activation of T1R1/T1R3 receptor by transmembrane compounds alone or with alanine, IMP, GMP, phenylalanine; HEK293 cells, calcium fluorescence (Example 5); type: cell-based, cat; conditions: read-out: EC50 (effect with 0.2 mM IMP); Table 20 controls; in the presence of 0.2 mM IMP
Description: as §1, with “transmembrane compounds” for “nucleotide derivatives”, “alone or in combination with one or more amino acids and/or one or more nucleotides” for “alone”
as §2

[4] = read-out: EC50 +Alanine (20 mM) + IMP (0.2 mM)
[5] = read-out: EC50 +Alanine (20 mM)

Row | Structure (SMILES) | Max resp % of Ala +IMP (0.2 mM) (T1R1/T1R3 receptor [1]; +IMP (0.2 mM)) | Max resp ΔF/F +IMP (0.2 mM) (T1R1/T1R3 receptor [1]; +IMP (0.2 mM)) | Thres +IMP (0.2 mM) (T1R1/T1R3 receptor [1]; +IMP (0.2 mM)) [mM] | Activity (T1R1/T1R3 receptor [1]) | Max resp ΔF/F +Alanine (20 mM) (T1R1/T1R3 receptor [1]) | Thres +Alanine (20 mM) (T1R1/T1R3 receptor [1]) [mM] | Max resp % of IMP +Alanine (20 mM) (T1R1/T1R3 receptor [1]; hek293 cells) | also measured
1 | O=P(O)(O)OP(=O)(O)OP(=O)(O)OC[C@H]1O[C@@H](n2cnc3c(Cl)ncnc32)[C@H](O)[C@@H]1O [6-Chloropurine riboside-5′-O-triphosphate] | 30.2 % of Ala | 0.2350 ΔF/F | 0.003 | active |  |  |  | Max resp % of IMP +Alanine (20 mM) (T1R1/T1R3 receptor [1]; +Alanine (20 mM)): 50.4 % of IMP; Max resp ΔF/F +Alanine (20 mM) (T1R1/T1R3 receptor [1]; +Alanine (20 mM)): 0.3450 ΔF/F; Thres +Alanine (20 mM) (T1R1/T1R3 receptor [1]; +Alanine (20 mM)): 0.01 mM; Max resp. (ΔF/F) (cat T1R1/T1R3 receptor): 0.345 ΔF/F; Threshold (cat T1R1/T1R3 receptor): 0.01 mM; Max. resp. % of IMP (cat T1R1/T1R3 receptor): 50.4 % of IMP
2 | O=C(NCCc1ccccc1)c1ccc2c(c1)OCO2 [N-phenethylbenzo[d][1,3]dioxole-5-carboxamide] | 92.0 % of Ala | 0.7150 ΔF/F | 0.01 | active | 0.0775 ΔF/F | 1.0 | 11.3 % of IMP | 
3 | CSCC[C@H](N)C(=O)O [L-Methionine, reference compound] |  |  |  |  |  |  |  | Max resp ΔF/F +IMP (0.2 mM) (T1R1/T1R3 receptor [1]): 0.3500 ΔF/F; Thres +IMP (0.2 mM) (T1R1/T1R3 receptor [1]): 30.0 mM; Max resp % of Ala +IMP (0.2 mM) (T1R1/T1R3 receptor [1]; hek293 cells): 45.0 % of Ala
4 | O=C(CN1C(=O)C(=O)N(Cc2ccccc2)C1=O)c1ccc(Cl)s1 [1-benzyl-3-(2-(5-chlorothiophen-2-yl)-2-oxoethyl)imidazolidine-2,4,5-trione] |  |  |  |  |  |  |  | PAM profile assessment (activation of T1R1/T1R3 in the presence of GMP and Alanine) (T1R1/T1R3 receptor [2]): PAM activity
5 | O=C(NCCc1ccccc1)c1cccnc1 [N-phenethylnicotinamide] | 149.5 % of Ala | 1.1625 ΔF/F | 0.03 | active | 0.5725 ΔF/F | 0.1 | 83.6 % of IMP | EC50 (T1R1/T1R3 receptor [1]; read-out: T1R1/T1R3 EC50): > 300 µM
6 | N[C@@H](CS)C(=O)O [L-Cysteine, reference compound] | 74.6 % of Ala | 0.5800 ΔF/F | 10.0 |  |  |  |  | 
7 | O=C(O)C1CCCCC1C(=O)Nc1cc(Cl)cc(Cl)c1 (stereo not drawn) [2-((3,5-dichlorophenyl)carbamoyl)cyclohexanecarboxylic acid] | 157.9 % of Ala | 1.2275 ΔF/F | 0.03 | active | 1.1200 ΔF/F | 0.1 | 163.5 % of IMP | 
8 | O=C(NCCCCNC(=O)c1cccnc1)c1cccnc1 [N,N′-(butane-1,4-diyl)dinicotinamide] | 49.2 % of Ala | 0.3825 ΔF/F | 0.1 | active | 0.0650 ΔF/F | 1.0 | 9.5 % of IMP | EC50 (T1R1/T1R3 receptor [1]; [4]): 610 µM; EC50 (T1R1/T1R3 receptor [1]; read-out: T1R1/T1R3 EC50): 610 ± 360 µM
9 | C[C@H](N)C(=O)O [L-Alanine, reference compound] | 100.0 % of Ala | 0.7775 ΔF/F | 3.0 |  |  |  |  | EC50 (T1R1/T1R3 receptor [3]): 13600 ± 4300 µM; EC50 (cat T1R1/T1R3 receptor; read-out: EC50): 13600 ± 4300 µM
10 | CCOC(=O)NC(=O)C(c1ccccc1)c1ccccc1 [Ro 01-6128, reference compound] | 199.7 % of Ala | 1.5525 ΔF/F | 0.01 | active |  |  |  | Max resp % of IMP +Alanine (20 mM) (T1R1/T1R3 receptor [1]; +Alanine (20 mM)): 74.8 % of IMP; Max resp ΔF/F +Alanine (20 mM) (T1R1/T1R3 receptor [1]; +Alanine (20 mM)): 0.5125 ΔF/F; Thres +Alanine (20 mM) (T1R1/T1R3 receptor [1]; +Alanine (20 mM)): 0.3 mM
11 | CCCCc1nn(CC(=O)N2CCCC2)c(=O)n1Cc1ccccc1 [4-benzyl-3-butyl-1-(2-oxo-2-(pyrrolidin-1-yl)ethyl)-1H-1,2,4-triazol-5(4H)-one] | 193.2 % of Ala | 1.5025 ΔF/F | 0.1 | active | 0.8900 ΔF/F | 0.3 | 129.9 % of IMP | EC50 (T1R1/T1R3 receptor [1]; compound alone in buffer, read-out: EC50 +buffer (alone)): > 600 µM; EC50 (T1R1/T1R3 receptor [1]; [5]): > 600 µM; EC50 (T1R1/T1R3 receptor [1]; [4]): > 600 µM; EC50 (T1R1/T1R3 receptor [1]; read-out: EC50 +IMP (0.2 mM), +IMP (0.2 mM)): > 600 µM
12 | CC(=O)Nc1ccc(C(=O)Nc2cc(-c3ccccc3)nn2CCO)cc1 [4-acetamido-N-(1-(2-hydroxyethyl)-3-phenyl-1H-pyrazol-5-yl)benzamide] | 58.8 % of Ala | 0.4575 ΔF/F |  | active | 0.0125 ΔF/F |  | 1.8 % of IMP | 
13 | N[C@@H](Cc1c[nH]c2ccccc12)C(=O)O [L-Tryptophan, reference compound] | 86.8 % of Ala | 0.6750 ΔF/F | 0.1 |  |  |  |  | 
14 | Nc1nc2c(ncn2[C@@H]2O[C@H](COP(=O)(O)OP(=O)(O)O)[C@@H](O)[C@H]2O)c(=S)[nH]1 [6-Thioguanosine-5′-O-diphosphate] | 9.3 % of Ala | 0.0720 ΔF/F |  | active | 1.0470 ΔF/F | 0.03 | 152.8 % of IMP | Max resp. (ΔF/F) (cat T1R1/T1R3 receptor): 1.047 ΔF/F; Threshold (cat T1R1/T1R3 receptor): 0.03 mM; Max. resp. % of IMP (cat T1R1/T1R3 receptor): 152.8 % of IMP; EC50 (cat T1R1/T1R3 receptor; in the presence of 20 mM alanine, read-out: EC50- with Ala): 180 ± 20 µM
15 | Nc1nc2c(ncn2[C@@H]2O[C@H](COP(=O)(O)O)[C@@H](O)[C@H]2O)c(=O)[nH]1 [Guanosine monophosphate (GMP), guanosine monophosphate, reference compound] |  |  |  |  |  |  |  | Max resp % of IMP +Alanine (20 mM) (T1R1/T1R3 receptor [1]; +Alanine (20 mM)): 114.6 % of IMP; Max resp ΔF/F +Alanine (20 mM) (T1R1/T1R3 receptor [1]; +Alanine (20 mM)): 0.7850 ΔF/F; Thres +Alanine (20 mM) (T1R1/T1R3 receptor [1]; +Alanine (20 mM)): 0.01 mM
16 | CC(C)CC(NC(=O)c1ccccc1)C(N)=O (racemic) | 204.5 % of Ala | 1.5900 ΔF/F | 0.1 | active | 0.8600 ΔF/F | 0.3 | 125.5 % of IMP | EC50 (T1R1/T1R3 receptor [1]; +0.2 mM IMP, read-out: T1R1/T1R3 EC50): 470 ± 70 µM; EC50 (T1R1/T1R3 receptor [1]; alone in buffer, read-out: T1R1/T1R3 EC50): > 600 µM; EC50 (T1R1/T1R3 receptor [1]; read-out: T1R1/T1R3 EC50): > 1000 µM
17 | Nc1ccccc1C(=O)NCCc1ccccc1 [2-amino-N-phenethylbenzamide] | 194.5 % of Ala | 1.5125 ΔF/F | 0.01 | active | 0.6400 ΔF/F | 0.3 | 93.4 % of IMP | 
18 | N[C@@H](CO)C(=O)O [L-Serine, reference compound] | 100.0 % of Ala | 0.7775 ΔF/F | 3.0 |  |  |  |  | 
19 | N[C@@H](Cc1c[nH]cn1)C(=O)O [L-Histidine, L-histidine, reference compound] | 36.3 % of Ala | 0.2825 ΔF/F | 10.0 |  |  |  |  | 
20 | O=C(NCCc1c[nH]c2ccccc12)c1cccnc1 [N-(2-(1H-indol-3-yl)ethyl)nicotinamide, N-(2-(1H-Indol-3-yl)ethyl)nicotinamide] | 170.1 % of Ala | 1.3225 ΔF/F | 0.003 | active | 1.1400 ΔF/F | 0.03 | 166.4 % of IMP | EC50 (T1R1/T1R3 receptor [1]; [5]): > 100 µM
21 | N[C@@H](Cc1ccc(O)cc1)C(=O)O [L-Tyrosine, reference compound] | 38.0 % of Ala |  | 3.0 |  |  |  |  | Max resp ΔF/F +IMP (0.2 mM) (T1R1/T1R3 receptor [1]): 0.2958 ΔF/F

From patent publication US11185100B2 (priority 2014, dated 2021)
